Tests used:
Experiment in all cases: Post-emergence efficacy, glasshouse, evaluated after 13 days
Assay type in all cases: in vivo
[1] = tested on: Amaranthus palmeri (AMAPA); details: post-emergence application, 500 g/Ha, evaluated after 13 days; for pest or weed control at 500 g/ha: Amaranthus palmeri, 312 h, read-out: Control of weed species AMAPA (100=total damage to plant; 0=no damage to plant)
Protocol: (§1) Seeds of a variety of test species were sown in standard soil in pots. After cultivation for 14 days (post-emergence) under controlled conditions in a glasshouse (at 24/16° C., day/night; 14 hours light; 65% humidity), the plants were sprayed with an aqueous spray solution derived from the dissolution of the technical active ingredient formula (I) in a small amount of acetone and a special solvent and emulsifier mixture referred to as IF50 (11.12% Emulsogen EL360 TM+44.44% N-methylpyrrolidone+44.44% Dowanol DPM glycol ether), to create a 50 g/l solution which was then diluted to required concentration using 0.25% or 1% Empicol ESC70 (Sodium lauryl ether sulphate)+1% ammonium sulphate as diluent.
(§2) The test plants were then grown in a glasshouse under controlled conditions (at 24/16° C., day/night; 14 hours light; 65% humidity) and watered twice daily. After 13 days the test was evaluated (100=total damage to plant; 0=no damage to plant).
(§3) Ipomoea hederacea (IPOHE), Euphorbia heterophylla (EPHHL), Chenopodium album (CHEAL), Amaranthus palmeri (AMAPA), Lolium perenne (LOLPE), Digitaria sanguinalis (DIGSA), Eleusine indica (ELEIN), Echinochloa crus-galli (ECHCG), Setaria faberi (SETFA)

[2] = tested on: Chenopodium album (CHEAL); details: post-emergence application, 500 g/Ha, evaluated after 13 days; for pest or weed control at 500 g/ha: Chenopodium album, 312 h, read-out: Control of weed species CHEAL (100=total damage to plant; 0=no damage to plant)
Protocol: as §1, §2, §3

[3] = tested on: Digitaria sanguinalis (DIGSA); details: post-emergence application, 500 g/Ha, evaluated after 13 days; for pest or weed control at 500 g/ha: Digitaria sanguinalis, 312 h, read-out: Control of weed species DIGSA (100=total damage to plant; 0=no damage to plant)
Protocol: as §1, §2, §3

[4] = tested on: Echinochloa crus-galli (ECHCG); details: post-emergence application, 500 g/Ha, evaluated after 13 days; for pest or weed control at 500 g/ha: Echinochloa crus-galli, 312 h, read-out: Control of weed species ECHCG (100=total damage to plant; 0=no damage to plant)
Protocol: as §1, §2, §3

Eleusine indica (ELEIN) = details: post-emergence application, 500 g/Ha, evaluated after 13 days; for pest or weed control at 500 g/ha: Eleusine indica, 312 h, read-out: Control of weed species ELEIN (100=total damage to plant; 0=no damage to plant)
Protocol: as §1, §2, §3

[5] = tested on: Euphorbia heterophylla (EPHHL); details: post-emergence application, 500 g/Ha, evaluated after 13 days; for pest or weed control at 500 g/ha: Euphorbia heterophylla, 312 h, read-out: Control of weed species EPHHL (100=total damage to plant; 0=no damage to plant)
Protocol: as §1, §2, §3

[6] = tested on: Ipomoea hederacea (IPOHE); details: post-emergence application, 500 g/Ha, evaluated after 13 days; for pest or weed control at 500 g/ha: Ipomoea hederacea, 312 h, read-out: Control of weed species IPOHE (100=total damage to plant; 0=no damage to plant)
Protocol: as §1, §2, §3

Lolium perenne (LOLPE) = details: post-emergence application, 500 g/Ha, evaluated after 13 days; for pest or weed control at 500 g/ha: Lolium perenne, 312 h, read-out: Control of weed species LOLPE (100=total damage to plant; 0=no damage to plant)
Protocol: as §1, §2, §3

Setaria faberi (SETFA) = details: post-emergence application, 500 g/Ha, evaluated after 13 days; for pest or weed control at 500 g/ha: Setaria faberi, 312 h, read-out: Control of weed species SETFA (100=total damage to plant; 0=no damage to plant)
Protocol: as §1, §2, §3

| SMILES | pest or weed control at 500 g/ha [1] [%] | pest or weed control at 500 g/ha [2] [%] | pest or weed control at 500 g/ha [3] [%] | pest or weed control at 500 g/ha [4] [%] | pest or weed control at 500 g/ha (Eleusine indica (ELEIN)) [%] | pest or weed control at 500 g/ha [5] [%] | pest or weed control at 500 g/ha [6] [%] | pest or weed control at 500 g/ha (Lolium perenne (LOLPE)) [%] | pest or weed control at 500 g/ha (Setaria faberi (SETFA)) [%] | Control of weed species AMAPA (100=total damage to plant; 0=no damage to plant) [1] | Control of weed species CHEAL (100=total damage to plant; 0=no damage to plant) [2] | Control of weed species DIGSA (100=total damage to plant; 0=no damage to plant) [3] | Control of weed species ECHCG (100=total damage to plant; 0=no damage to plant) [4] | Control of weed species ELEIN (100=total damage to plant; 0=no damage to plant) (Eleusine indica (ELEIN)) | Control of weed species EPHHL (100=total damage to plant; 0=no damage to plant) [5] | Control of weed species IPOHE (100=total damage to plant; 0=no damage to plant) [6] | Control of weed species LOLPE (100=total damage to plant; 0=no damage to plant) (Lolium perenne (LOLPE)) | Control of weed species SETFA (100=total damage to plant; 0=no damage to plant) (Setaria faberi (SETFA)) |
| --- | --- | --- | --- | --- | --- | --- | --- | --- | --- | --- | --- | --- | --- | --- | --- | --- | --- | --- |
| COC(=O)CC[n+]1ccc(C(=O)N(C)C)cn1 [Compound A2] | 10 | 10 | 50 | 30 | 10 | 50 | 20 | 20 | 30 | – | – | – | – | – | – | – | – | – |
| CN(C)C(=O)c1cc[n+](CCCS(=O)(=O)O)nc1 [Compound A3] | 90 | 70 | 20 | 20 | 10 | 90 | 20 | 10 | 20 | – | – | – | – | – | – | – | – | – |
| CC(C)NC(=O)c1cc[n+](CCS(=O)(=O)O)nc1 [Compound A5] | 90 | 70 | 50 | 60 | 40 | 30 | 60 | 50 | 40 | – | – | – | – | – | – | – | – | – |
| CC(C)NC(=O)c1cc[n+](CCC(=O)[O-])nc1 [Compound A6] | 100 | 100 | 90 | 50 | 70 | 50 | 60 | 90 | 90 | – | – | – | – | – | – | – | – | – |
| O=C(Nc1ccccc1)c1cc[n+](CCS(=O)(=O)[O-])nc1 [Compound A7] | 100 | 90 | 20 | 20 | 40 | 60 | 10 | 20 | 30 | – | – | – | – | – | – | – | – | – |
| CN(C(=O)c1cc[n+](CCS(=O)(=O)O)nc1)c1ccccc1 [Compound A8] | 100 | 90 | 20 | 10 | 40 | 80 | 30 | 0 | 20 | – | – | – | – | – | – | – | – | – |
| CN(C)C(=O)c1cc[n+](CCC(=O)O)nc1 [Compound A10] | 100 | 100 | 90 | 70 | 80 | 100 | 60 | 10 | 90 | – | – | – | – | – | – | – | – | – |
| CNC(=O)c1cc[n+](CCCS(=O)(=O)[O-])nc1 [Compound A11] | 40 | 80 | 70 | 70 | 10 | 70 | 30 | 30 | 20 | – | – | – | – | – | – | – | – | – |
| CNC(=O)c1cc[n+](CC[C@H](N)C(=O)O)nc1.O=C(O)C(F)(F)F.O=C([O-])C(F)(F)F [Compound A12] | – | – | – | – | – | – | – | – | – | 90 | 60 | 90 | 80 | 60 | 70 | 40 | 40 | 60 |
| CC(C)(C)NC(=O)c1cc[n+](CCS(=O)(=O)O)nc1 [Compound A13] | 100 | 100 | 80 | 60 | 70 | 70 | 60 | 60 | 80 | – | – | – | – | – | – | – | – | – |
| CC(C)N(C(=O)c1cc[n+](CCS(=O)(=O)O)nc1)C(C)C [Compound A14] | 100 | 70 | 30 | 10 | 10 | 50 | 30 | 0 | 10 | – | – | – | – | – | – | – | – | – |
| CC(C)(C)NC(=O)c1cc[n+](CCC(=O)O)nc1 [Compound A15] | 100 | 100 | 90 | 90 | 100 | 90 | 30 | 70 | 100 | – | – | – | – | – | – | – | – | – |
| C#CCNC(=O)c1cc[n+](CCS(=O)(=O)[O-])nc1 [Compound A16] | 100 | 90 | 70 | 90 | 90 | 80 | 80 | 60 | 70 | – | – | – | – | – | – | – | – | – |
| C#CCNC(=O)c1cc[n+](CCC(=O)O)nc1 [Compound A17] | 100 | 100 | 100 | 90 | 100 | 90 | 100 | 70 | 90 | – | – | – | – | – | – | – | – | – |
| C=CCNC(=O)c1cc[n+](CCS(=O)(=O)[O-])nc1 [Compound A18] | 100 | 90 | 80 | 90 | 90 | 70 | 70 | 70 | 50 | – | – | – | – | – | – | – | – | – |
| C=CCNC(=O)c1cc[n+](CCC(=O)O)nc1 [Compound A19] | 100 | 90 | 100 | 80 | 90 | 90 | 70 | 80 | 80 | – | – | – | – | – | – | – | – | – |
| O=C(NCc1ccccc1)c1cc[n+](CCS(=O)(=O)[O-])nc1 [Compound A20] | 100 | 100 | 60 | 60 | 80 | 80 | 50 | 30 | 90 | – | – | – | – | – | – | – | – | – |
| O=C(O)CC[n+]1ccc(C(=O)NCc2ccccc2)cn1 [Compound A21] | 90 | 90 | 70 | 90 | 90 | 90 | 60 | 40 | 60 | – | – | – | – | – | – | – | – | – |
